# Data reported in patent publication US20240217978A1 (CHONG KUN DANG PHARMACEUTICAL CORP., priority 2021, published 2024).
# Biological target: human adenosine A2a receptor (Homo sapiens (Human), UniProt P29274)
# Experiment: A2a receptor binding affinity, [3H]-NECA radioligand binding test
# Settings: [3H]-NECA 37 nM; membrane from HEK-293 cells transfected with human adenosine A2a receptor
# Method in brief: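 Membranes from HEK-293 cells expressing human A2a receptor were incubated with [3H]-NECA (final 37 nM) and compound for 1 h at room temperature in 50 mM Tris, 10 mM MgCl2, 1 mM EDTA, pH 7.4. Bound ligand was filtered on PEI-coated plates and counted by scintillation to derive IC50 (μM).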
# Chain of human adenosine A2a receptor (P29274 whole entry): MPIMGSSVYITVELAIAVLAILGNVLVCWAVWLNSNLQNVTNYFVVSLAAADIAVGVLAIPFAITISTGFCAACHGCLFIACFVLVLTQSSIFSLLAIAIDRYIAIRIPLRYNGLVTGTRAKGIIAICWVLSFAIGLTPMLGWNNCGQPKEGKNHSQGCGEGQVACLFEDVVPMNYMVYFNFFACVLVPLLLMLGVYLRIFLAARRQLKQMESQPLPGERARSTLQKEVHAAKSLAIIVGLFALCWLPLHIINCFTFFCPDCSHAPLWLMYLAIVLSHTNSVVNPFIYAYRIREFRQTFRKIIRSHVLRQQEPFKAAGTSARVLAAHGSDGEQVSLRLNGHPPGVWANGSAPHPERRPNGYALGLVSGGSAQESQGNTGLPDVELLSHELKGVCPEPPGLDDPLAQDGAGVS
row,IC50 [nM],SMILES
1,28,"Nc1nc(N2CCC[C@H]2C(=O)N2CCN(C3CC3)CC2)nc2nc(-c3ccco3)nn12 [Example 139, (S)-(1-(7-amino-2-(furan-2-yl)-[1,2,4]triazolo[1,5-a][1,3,5]triazin-5-yl)pyrrolidin-2-yl)(4-cyclopropylpiperazin-1-yl)methanone]"
2,0.7,"Nc1nc(N2CC[C@H]2C(=O)N2CCC(C3CCN(CC(F)F)CC3)CC2)cc2nc(-c3ccco3)nn12 [Example 378, (S)-(1-(5-amino-2-(furan-2-yl)-[1,2,4]triazolo[1,5-c]pyrimidin-7-yl)azetidin-2-yl)(1′-(2,2-difluoroethyl)-[4,4′-bipiperidin]-1-yl)methanone]"
3,0.214,"Nc1nc(N[C@@H](Cc2ccccc2)C(=O)N2CCN(S(=O)(=O)c3ccccc3)CC2)nc2nc(-c3ccco3)nn12 [Example 6, (S)-2-((7-amino-2-(furan-2-yl)-[1,2,4]triazolo[1,5-a][1,3,5]triazin-5-yl)amino)-3-phenyl-1-(4-(phenylsulfonyl)piperazin-1-yl)propan-1-one]"
4,0.1,"Nc1nc(N[C@H](C(=O)N2CCN(c3ccc(F)cc3F)CC2)C2CCCCC2)nc2nc(-c3ccco3)nn12 [Example 11, (S)-2-((7-amino-2-(furan-2-yl)-[1,2,4]triazolo[1,5-a][1,3,5]triazin-5-yl)amino)-2-cyclohexyl-1-(4-(2,4-difluorophenyl)piperazin-1-yl)ethan-1-one]"
5,1,"CCC(F)(F)CN1CCN(C(=O)[C@@H]2CCCN2c2cc3nc(-c4ccco4)nn3c(N)n2)CC1 [Example 295, (S)-(1-(5-amino-2-(furan-2-yl)-[1,2,4]triazolo[1,5-c]pyrimidin-7-yl)pyrrolidin-2-yl)(4-(2,2-difluorobutyl)piperazin-1-yl)methanone]"
6,0.1,"Nc1nc(N2CC[C@H]2C(=O)N2CCC(C3CCN(CC(F)(F)F)CC3)CC2)cc2nc(-c3ccco3)nn12 [Example 377, (S)-(1-(5-amino-2-(furan-2-yl)-[1,2,4]triazolo[1,5-c]pyrimidin-7-yl)azetidin-2-yl)(1′-(2,2,2-trifluoroethyl)-[4,4′-bipiperidin]-1-yl)methanone]"
7,8,"CC(C)(F)CN1CCN(C(=O)[C@H](Cc2ccccc2)Nc2nc(N)n3nc(-c4ccco4)nc3n2)CC1 [Example 28, (S)-2-((7-amino-2-(furan-2-yl)-[1,2,4]triazolo[1,5-a][1,3,5]triazin-5-yl)amino)-1-(4-(2-fluoro-2-methylpropyl)piperazin-1-yl)-3-phenylpropan-1-one]"
8,12,"Nc1nc(N2CCC[C@H]2C(=O)N2CCC(C3CCN(C(=O)Nc4ccccc4)CC3)CC2)nc2nc(-c3ccco3)nn12 [Example 184, 1′-((7-amino-2-(furan-2-yl)-[1,2,4]triazolo[1,5-a][1,3,5]triazin-5-yl)-L-prolyl)-N-phenyl-[4,4′-bipiperidine]-1-carboxamide]"
9,21,"CC(C)(O)CC(=O)N1CCN(C(=O)[C@@H]2CCCN2c2cc3nc(-c4ccco4)nn3c(N)n2)CC1 [Example 292, 1-(4-((5-amino-2-(furan-2-yl)-[1,2,4]triazolo[1,5-c]pyrimidin-7-yl)-L-prolyl)piperazin-1-yl)-3-hydroxy-3-methylbutan-1-one]"
10,9,"CC(C)(F)CN1CCN(C(=O)CNc2nc(N)n3nc(-c4ccco4)nc3n2)CC1 [Example 388, 2-((7-amino-2-(furan-2-yl)-[1,2,4]triazolo[1,5-a][1,3,5]triazin-5-yl)amino)-1-(4-(2-fluoro-2-methylpropyl)piperazin-1-yl)ethan-1-one]"
11,8,"Nc1nc(N2CCC[C@H]2C(=O)N2CCC(N3CC(F)(F)C3)CC2)nc2nc(-c3ccco3)nn12 [Example 390, (S)-(1-(7-amino-2-(furan-2-yl)-[1,2,4]triazolo[1,5-a][1,3,5]triazin-5-yl)pyrrolidin-2-yl)(4-(3,3-difluoroazetidin-1-yl)piperidin-1-yl)methanone]"
12,0.8,"C[C@@H]1CN(CC(C)(C)F)CCN1C(=O)[C@@H]1CCCN1c1nc(N)n2nc(-c3ccco3)nc2n1 [Example 374, ((S)-1-(7-amino-2-(furan-2-yl)-[1,2,4]triazolo[1,5-a][1,3,5]triazin-5-yl)pyrrolidin-2-yl)((R)-4-(2-fluoro-2-methylpropyl)-2-methylpiperazin-1-yl) methanone]"
13,10,"CCCCN1CCN(C(=O)[C@@H](Nc2nc(N)n3nc(-c4ccco4)nc3n2)C2CCCC2)CC1 [Example 178, (S)-2-((7-amino-2-(furan-2-yl)-[1,2,4]triazolo[1,5-a][1,3,5]triazin-5-yl)amino)-1-(4-butylpiperazin-1-yl)-2-cyclopentylethan-1-one]"
14,5,"Nc1nc(N2CCC[C@H]2C(=O)N2CCC(C3CCN(CCCC(F)(F)F)CC3)CC2)nc2nc(-c3ccco3)nn12 [Example 291, (S)-(1-(7-amino-2-(furan-2-yl)-[1,2,4]triazolo[1,5-a][1,3,5]triazin-5-yl)pyrrolidin-2-yl)(1′-(4,4,4-trifluorobutyl)-[4,4′-bipiperidin]-1-yl)methanone]"
15,8,"CC(C)(F)CN1CCN(C(=O)[C@@H]2CC3(CC3)CN2c2nc(N)n3nc(-c4ccco4)nc3n2)CC1 [Example 386, (S)-(5-(7-amino-2-(furan-2-yl)-[1,2,4]triazolo[1,5-a][1,3,5]triazin-5-yl)-5-azaspiro[2.4]heptan-6-yl)(4-(2-fluoro-2-methylpropyl)piperazin-1-yl)methanone]"
16,2,"CCC(F)(F)CN1CCN(C(=O)[C@@H]2CCCN2c2nc(N)n3nc(-c4ccco4)nc3n2)CC1 [Example 225, (S)-(1-(7-amino-2-(furan-2-yl)-[1,2,4]triazolo[1,5-a][1,3,5]triazin-5-yl)pyrrolidin-2-yl)(4-(2,2-difluorobutyl)piperazin-1-yl)methanone]"
17,11,"Nc1nc(N2CCC[C@H]2C(=O)N2CCC(C(=O)Nc3cccc(C(F)F)c3)CC2)nc2nc(-c3ccco3)nn12 [Example 132, 1-((7-amino-2-(furan-2-yl)-[1,2,4]triazolo[1,5-a][1,3,5]triazin-5-yl)-L-prolyl)-N-(3-(difluoromethyl)phenyl)piperidin-4-carboxamide]"
18,8,"Cc1ccc(-c2nc3nc(N4CCC[C@H]4C(=O)N4CCN(CC(C)(C)F)CC4)nc(N)n3n2)o1 [Example 90, (S)-(1-(7-amino-2-(5-methylfuran-2-yl)-[1,2,4]triazolo[1,5-a][1,3,5]triazin-5-yl)pyrrolidin-2-yl)(4-(2-fluoro-2-methylpropyl)piperazin-1-yl)methanone]"
19,10,"Nc1nc(N2CCC[C@H]2C(=O)N2CCC(CN3CCC(C(F)(F)F)CC3)CC2)nc2nc(-c3ccco3)nn12 [Example 331, (S)-(1-(7-amino-2-(furan-2-yl)-[1,2,4]triazolo[1,5-a][1,3,5]triazin-5-yl)pyrrolidin-2-yl)(4-((4-(trifluoromethyl)piperidin-1-yl)methyl)piperidin-1-yl)methanone]"

row,SMILES,IC50 [nM]
1,"Nc1nc(N2CC[C@H]2C(=O)N2CCN(CC(F)(F)C(F)(F)C(F)(F)F)CC2)nc2nc(-c3ccco3)nn12 [Example 257, (S)-(1-(7-amino-2-(furan-2-yl)-[1,2,4]triazolo[1,5-a][1,3,5]triazin-5-yl)azetidin-2-yl)(4-(2,2,3,3,4,4,4-heptafluorobutyl)piperazin-1-yl)methanone]",0.8
